Results taken from patent US20210040074A1 (The United States of America,as represented by the …, priority 2018, published 2021).
Where “and” joins values, the source holds several entries; their conditions need not be identical. Equal entries are not always repeated.

Legend:
human D1R [1] = target: T1, human D1R (Homo sapiens, UniProt P21728); assay: D1R β-arrestin recruitment assay (DiscoverX PathHunter, CHO-K1 cells); set-up: Emax: dose or concentration left out as unconfirmed; settings: for increase in dopamine potency (EC50) for β-arrestin recruitment to D1R: 50 μM compound vs DA alone; for Emax: CHO-K1, read-out: increase in dopamine efficacy (Emax) for β-arrestin recruitment to D1R; for agonist activity of PAM alone, β-arrestin recruitment: concentration response with the PAM, no dopamine; for effect on potency of D1R partial agonists: fenoldopam, apomorphine, SKF38393, SKF77434; for D1 Beta-Arrestin: DA + 50 μM PAM, Fold Chg EC50: fold change of dopamine EC50, 50 μM compound; for log β (modulatory effect on dopamine efficacy) / β (modulatory effect on dopamine efficacy): operational model of allosterism; for increase in SKF77434-stimulated response: partial agonist SKF77434 + PAM, text says cAMP accumulation, FIG. 5D legend β-arrestin; for increase in efficacy of SKF38393 / increase in efficacy of apomorphine / increase in efficacy of fenoldopam: β-arrestin recruitment; for increase in efficacy of SKF38393: G-protein biased partial agonist SKF38393 + PAM; for increase in efficacy of apomorphine: partial agonist apomorphine + PAM; for increase in efficacy of fenoldopam: partial agonist fenoldopam + PAM
D5 [2] = target: T2, D5 (Homo sapiens, UniProt P21918); assay: D5 cAMP assay; settings: fold change of dopamine EC50, 50 μM compound
Experimental: (§2) cAMP Accumulation Assay. Assays were performed on D1R-HEK293 (Codex Biosolutions, Gaithersburg, Md.) cells stably expressing the human D1R. HEK293 cell lines were maintained in Dulbecco's modified Eagles medium, supplemented with 10% fetal bovine serum, 100 U/ml penicillin, 100 μg/ml streptomycin, 1 mM sodium pyruvate, and 250 μg/ml G418 and incubated at 37° C., 5% CO2, and 90% humidity. […] After 18-24 h incubation at 37° C., 5% CO2, and 90% humidity, the media was removed and replaced with 5 μL/well PBS. […] Briefly, antibody and working solution was added to each well according to the manufacturer's protocol, and incubated in the dark at room temperature for 60 min. Following incubation, enzyme acceptor reagent was added to the plates and luminescence (RLU) was measured (FDSS μCell, Hamamatsu Photonics K. K., Bridgewater, N.J.) following a 3 h incubation in the dark at room temperature.

D5 [3] = target: T2, D5; assay: D5R β-arrestin recruitment assay (DiscoverX PathHunter, CHO cells); type: cell-based; set-up: host or cells: CHO-K1; settings: for D5 Beta-Arrestin: DA + 50 μM PAM, Fold Change EC50: fold change of dopamine EC50, 50 μM compound; for agonist response of PAM alone at D5R: in the absence of DA
Experimental: (§1) β-arrestin Recruitment Assay. […] Following 18-24 h of incubation, the cells were treated with the indicated concentrations of compound in PBS buffer containing 0.2 mM sodium metabisulfite, and incubated at 37° C. for 90 min. DiscoverX reagent was added to cells according to the manufacturer's protocol, followed by a 60 min incubation in the dark at room temperature. Luminescence was measured on a Hamamatsu FDSS μ-Cell reader (Hamamatsu, Bridgewater, N.J.) and data were collected using the FDSS software.
Each PAM was also examined in the absence of DA as an agonist, as indicated.

[4] = system: non D1R containing control cells; assay: Forskolin stimulated cAMP accumulation in non D1R containing control cells; type: cell-based
D4R [5] = target: T3, D4R (Homo sapiens, UniProt P21917); assay: D4R β-arrestin BRET assay; settings: 50 μM compound
T3 sequence (P21917 1-419): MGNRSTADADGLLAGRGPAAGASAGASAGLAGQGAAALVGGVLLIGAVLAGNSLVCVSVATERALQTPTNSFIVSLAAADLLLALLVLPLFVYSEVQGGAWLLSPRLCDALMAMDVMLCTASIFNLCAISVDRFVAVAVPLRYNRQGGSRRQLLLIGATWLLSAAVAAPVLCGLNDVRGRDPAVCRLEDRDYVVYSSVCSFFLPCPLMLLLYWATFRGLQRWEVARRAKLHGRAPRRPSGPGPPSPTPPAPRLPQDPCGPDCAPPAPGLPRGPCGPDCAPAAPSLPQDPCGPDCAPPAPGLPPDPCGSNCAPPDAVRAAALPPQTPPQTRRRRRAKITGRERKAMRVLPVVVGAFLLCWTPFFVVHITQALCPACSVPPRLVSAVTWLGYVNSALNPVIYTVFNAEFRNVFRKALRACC
Experimental: (§3) Bioluminescence Resonance Energy Transfer (BRET) Assays. Experiments were performed in HEK239 cells transiently transfected with D1R-RLuc8 and β-arrestin-mVenus (β-arrestin BRET) or Gαs-mVenus+β1+γ2 (Gs BRET) using the polyethylenimine (PEI) transfection method. […] Appropriate amounts of DNA were combined with 3 μg/μL PEI per μg of DNA in nonsupplemented DMEM and incubated with the cells overnight. Experiments were performed 48 hours post-transfection. On experiment day, cells were collected and resuspended in Dulbecco's Phosphate-Buffered Saline (DPBS) with Ca2+ and Mg2++0.2 mM sodium metabisulfite+5.5 mM glucose.

β2AR = β2AR (Homo sapiens, UniProt P07550); assay: β2AR β-arrestin BRET assay; settings: 50 μM compound
Experimental: as §3

human D1R [6] = target: T1, human D1R; assay: D1 cAMP accumulation assay (D1R-HEK293 cells, DiscoverX HitHunter); settings: for increase in dopamine potency for cAMP accumulation: 50 μM compound vs DA alone; for agonist activity for cAMP accumulation: compound alone; for D1 cAMP: DA + 50 μM PAM, Fold Chg EC50: fold change of dopamine EC50, 50 μM compound
Experimental: as §2

D4R [7] = target: T3, D4R; assay: D4 β-arrestin recruitment assay (DiscoverX PathHunter, CHO-K1 cells); type: cell-based; set-up: inferred from the same PathHunter system described for D1R and D5R; host or cells: CHO-K1; settings: for D4 Beta-Arrestin: DA + 50 μM PAM, Fold Change EC50: fold change of dopamine EC50, 50 μM compound
Experimental: as §1, with “Assay. Agonist-mediated recruitment of β-arrestin-2 to all five DARs was determined using the DiscoveRx PathHunter complementation assay (DiscoverX Inc, Fremont, Calif.), as previously described (Free, et. al., 2014; Conroy, et. al., 2015).” for “Assay.”

D2R = D2R (Homo sapiens, UniProt P14416); assay: D2R β-arrestin BRET assay; settings: 50 μM compound
Experimental: as §3

D3R = D3R (Homo sapiens, UniProt P35462); assay: D3R β-arrestin BRET assay; settings: 50 μM compound
Experimental: as §3

human D1R [8] = target: T1, human D1R; assay: [3H]-SCH23390 radioligand competition binding (HEK293 D1R membranes), incl. allosteric ternary complex model; settings: for log α / α (binding cooperativity between PAM and dopamine): allosteric ternary complex model; for effect on [3H]-SCH23390 binding: compound alone, up to 50 μM; for leftward shift of dopamine competition curve (increase in dopamine affinity): dopamine competition with [3H]-SCH23390, increasing concentrations of compound; for decrease of [3H]-SCH23390 binding: highest concentration tested, 50 μM

T1 sequence (P21728 whole entry): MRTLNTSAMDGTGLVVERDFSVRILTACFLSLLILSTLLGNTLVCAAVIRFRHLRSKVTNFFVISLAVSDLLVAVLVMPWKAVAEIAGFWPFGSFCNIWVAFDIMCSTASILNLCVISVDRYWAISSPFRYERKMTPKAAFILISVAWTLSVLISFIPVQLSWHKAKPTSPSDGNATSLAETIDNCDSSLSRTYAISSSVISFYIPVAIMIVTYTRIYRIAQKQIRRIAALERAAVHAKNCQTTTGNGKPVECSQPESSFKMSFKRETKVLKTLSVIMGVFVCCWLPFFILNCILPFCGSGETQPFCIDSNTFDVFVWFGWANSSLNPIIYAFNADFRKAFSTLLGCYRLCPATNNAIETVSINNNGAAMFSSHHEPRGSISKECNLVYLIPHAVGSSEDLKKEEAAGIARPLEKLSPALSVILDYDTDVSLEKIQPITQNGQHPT
T2 sequence (P21918 whole entry): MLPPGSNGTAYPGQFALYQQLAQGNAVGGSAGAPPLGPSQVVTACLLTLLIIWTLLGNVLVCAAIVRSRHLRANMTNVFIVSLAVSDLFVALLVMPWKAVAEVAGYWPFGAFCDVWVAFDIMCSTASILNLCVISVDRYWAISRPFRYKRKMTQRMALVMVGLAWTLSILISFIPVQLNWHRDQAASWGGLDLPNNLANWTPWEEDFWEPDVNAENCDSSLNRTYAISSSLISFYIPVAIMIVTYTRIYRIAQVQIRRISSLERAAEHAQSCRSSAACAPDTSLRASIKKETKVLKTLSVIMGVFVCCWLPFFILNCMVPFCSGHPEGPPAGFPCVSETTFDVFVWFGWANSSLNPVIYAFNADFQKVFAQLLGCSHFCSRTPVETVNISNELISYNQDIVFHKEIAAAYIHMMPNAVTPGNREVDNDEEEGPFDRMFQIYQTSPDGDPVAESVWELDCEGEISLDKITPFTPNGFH
D2R, sequence (P14416 whole entry): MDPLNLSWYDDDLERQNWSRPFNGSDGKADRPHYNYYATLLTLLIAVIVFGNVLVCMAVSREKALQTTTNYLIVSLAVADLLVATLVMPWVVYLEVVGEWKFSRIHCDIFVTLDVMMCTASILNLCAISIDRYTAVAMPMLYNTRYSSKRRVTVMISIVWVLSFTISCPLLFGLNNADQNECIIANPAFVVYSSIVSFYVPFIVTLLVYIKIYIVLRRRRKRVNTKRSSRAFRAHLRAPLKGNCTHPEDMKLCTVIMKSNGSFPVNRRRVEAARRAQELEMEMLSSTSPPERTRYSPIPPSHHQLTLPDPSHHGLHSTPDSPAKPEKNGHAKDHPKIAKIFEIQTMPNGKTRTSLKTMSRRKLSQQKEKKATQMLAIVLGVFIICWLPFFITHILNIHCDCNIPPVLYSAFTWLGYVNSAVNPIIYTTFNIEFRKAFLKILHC
D3R, sequence (P35462 whole entry): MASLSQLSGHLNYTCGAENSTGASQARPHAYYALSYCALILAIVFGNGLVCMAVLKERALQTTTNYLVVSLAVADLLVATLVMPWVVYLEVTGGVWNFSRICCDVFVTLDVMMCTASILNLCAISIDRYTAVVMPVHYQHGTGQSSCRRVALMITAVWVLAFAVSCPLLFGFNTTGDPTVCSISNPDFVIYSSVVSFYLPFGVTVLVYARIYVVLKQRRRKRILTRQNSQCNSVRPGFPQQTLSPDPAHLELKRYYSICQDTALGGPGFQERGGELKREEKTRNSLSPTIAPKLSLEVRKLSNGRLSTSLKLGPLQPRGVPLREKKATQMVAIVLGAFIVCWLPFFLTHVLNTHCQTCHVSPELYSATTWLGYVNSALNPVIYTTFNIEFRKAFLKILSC
β2AR, sequence (P07550 whole entry): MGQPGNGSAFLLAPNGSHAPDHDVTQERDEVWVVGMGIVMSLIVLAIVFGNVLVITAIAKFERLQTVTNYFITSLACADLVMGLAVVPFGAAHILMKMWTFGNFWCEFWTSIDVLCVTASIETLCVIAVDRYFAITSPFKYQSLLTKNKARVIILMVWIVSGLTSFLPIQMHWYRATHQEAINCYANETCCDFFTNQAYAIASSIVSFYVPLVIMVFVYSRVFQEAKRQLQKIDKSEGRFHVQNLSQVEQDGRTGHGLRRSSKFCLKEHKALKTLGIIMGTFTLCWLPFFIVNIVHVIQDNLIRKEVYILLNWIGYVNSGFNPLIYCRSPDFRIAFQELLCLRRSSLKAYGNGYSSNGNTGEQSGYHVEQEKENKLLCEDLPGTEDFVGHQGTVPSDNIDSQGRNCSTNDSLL

Structure (SMILES)	Kb (human D1R [1])	increase in dopamine potency (EC50) for β-arrestin recruitment to D1R (human D1R [1])	Emax (human D1R [1])	agonist activity of PAM alone, β-arrestin recruitment (human D1R [1])	effect on potency of D1R partial agonists (human D1R [1])	D1 Beta-Arrestin: DA + 50 μM PAM, Fold Chg EC50 (human D1R [1])	log β (modulatory effect on dopamine efficacy) (human D1R [1])	β (modulatory effect on dopamine efficacy) (human D1R [1])	increase in SKF77434-stimulated response (human D1R [1])	increase in efficacy of SKF38393 (human D1R [1])	increase in efficacy of apomorphine (human D1R [1])	increase in efficacy of fenoldopam (human D1R [1])	D5 cAMP: DA + 50 μM PAM, Fold Change EC50 (D5 [2])	D5 Beta-Arrestin: DA + 50 μM PAM, Fold Change EC50 (D5 [3])	agonist response of PAM alone at D5R (D5 [3])	effect on forskolin stimulated cAMP accumulation [4]	potentiation of dopamine response at D4R (D4R [5])	potentiation of epinephrine response at β2AR (β2AR)	increase in dopamine potency for cAMP accumulation (human D1R [6])	agonist activity for cAMP accumulation (human D1R [6])	other results
Cn1c2ccccc2c(=O)c2c(=O)n(-c3ccccc3)c(C3CCCCC3)nc21 [Compound 1, 2-Cyclohexyl-10-methyl-3-phenylpyrimido[4,5-b]quinoline-4,5(3H,10H)-dione]	460 nM	7 fold and 5 fold and 4.6 fold	20%	Neither PAM displayed any measurable agonist activity	Neither PAM altered the potency	4.64	0.41±0.06	2.57	130%	111%	95%	48%	2.14	2.56	Neither PAM produced an agonist response	does not significantly increase	Neither PAM produced any measurable potentiation	Neither PAM produced any measurable potentiation	3 fold	Neither compound 1 (FIGS. 3A and 3B) nor compound 28 (FIGS. 3C and 3D) demonstrated any agonist activity	Dopamine D1-β-arrestin Assay: DA + 50 μM PAM, Fold Change EC50 (human D1R [1]; Table 5, 50 μM compound): 4.64; fold change of dopamine EC50 for β-arrestin recruitment to D5R (D5 [3]; 50 μM compound): 2.5 fold; Dopamine D5-β-arrestin Assay: DA + 50 μM PAM, Fold Change EC50 (D5 [3]; Table 6, 50 μM compound): 2.56; D1 cAMP: DA + 50 μM PAM, Fold Chg EC50 (human D1R [6]): 1.83; Dopamine D4-β-arrestin Assay: DA + 50 μM PAM, Fold Change EC50 (D4R [7]; Table 7, 50 μM compound): 1.06; D4 Beta-Arrestin: DA + 50 μM PAM, Fold Change EC50 (D4R [7]): 1.06; potentiation of dopamine response at D2R (D2R): Neither PAM produced any measurable potentiation; potentiation of dopamine response at D3R (D3R): Neither PAM produced any measurable potentiation; Kb (human D1R [8]): 540 nM; log α (human D1R [8]): 0.49±0.07; α (binding cooperativity between PAM and dopamine) (human D1R [8]): 3.09; effect on [3H]-SCH23390 binding (human D1R [8]): no displacement; leftward shift of dopamine competition curve (increase in dopamine affinity) (human D1R [8]): ~3 fold; decrease of [3H]-SCH23390 binding (human D1R [8]): ~17%
CC(C)(C)C1CCc2c(sc(NC(=O)c3ccncc3)c2C(N)=O)C1 (centres unmarked) [Compound 28]	5400 nM	8 fold	34%	Neither PAM displayed any measurable agonist activity	Neither PAM altered the potency	8.29	0.32±0.1	2.09	96%	151%	134%	83%	1.63	1.25	Neither PAM produced an agonist response	no increase	Neither PAM produced any measurable potentiation	Neither PAM produced any measurable potentiation	5 fold and 4 fold	Neither compound 1 (FIGS. 3A and 3B) nor compound 28 (FIGS. 3C and 3D) demonstrated any agonist activity	D1 cAMP: DA + 50 μM PAM, Fold Chg EC50 (human D1R [6]): 2.93; D4 Beta-Arrestin: DA + 50 μM PAM, Fold Change EC50 (D4R [7]): 1.72; potentiation of dopamine response at D2R (D2R): Neither PAM produced any measurable potentiation; potentiation of dopamine response at D3R (D3R): Neither PAM produced any measurable potentiation; Kb (human D1R [8]): 5370 nM; log α (human D1R [8]): 0.82±0.11; α (binding cooperativity between PAM and dopamine) (human D1R [8]): 6.61; effect on [3H]-SCH23390 binding (human D1R [8]): complete inhibition; leftward shift of dopamine competition curve (increase in dopamine affinity) (human D1R [8]): ~7 fold; decrease of [3H]-SCH23390 binding (human D1R [8]): ~66%
CC(C)(C)C1CCc2c(sc(NC(=O)c3cccnc3)c2C(N)=O)C1 (centres unmarked) [Example 2.3, N-(6-(Tert-butyl)-3-carbamoyl-4,5,6,7-tetrahydrobenzo[b]thiophen-2-yl)nicotinamide]																					melting point: 195 to 209 °C
